Columns and labels:
Th17 cells [1] = experiment: Expansion of pathogen-specific Th17 cells in immunized CII-TCR Tg mice; format: in vivo
Th17 cells [2] = experiment: ISL polarizing effect in vivo (CII in CFA immunization); set-up: species or system DBA/1 mice
Procedure: (A) DBA/1 mice were immunized with CII in CFA in the presence of PBS, 65-79*0401 or 65-79*0402. On day 7, cells from draining lymph nodes were isolated, cultured for 6 hours with PMA, Ionomycin and Brefeldin A and then stained with anti-mouse CD4, IL17A and IFN-γ as above. On the left: Representative dot plots showing percentages of IL17A+ and IFN-γ+ cells obtained from gated CD4+ cells. On the right, bar graphs showing results as mean±SD of duplicate experiments. (B) DBA/1 and CII-TCR Tg mice were immunized as in (A). On day 7, splenic cells were isolated and cultured with the synthetic peptide CII260-267 (5 μg/ml). Supernatants were collected every 24 hours and assayed for IL-17 levels by ELISA.
Mice were injected subcutaneously in the footpad with 100 μg of chicken collagen type II (CII) (Chondrex, Inc, Redmond, Wash.) emulsified in CFA (4 mg/ml). The inoculums contained 10 μg of either ISL-positive 65-79*0401 or ISL-negative 65-79*0402 ligands in PBS, or an equal volume of PBS alone. Animals were sacrificed 7 days after immunization. For Th17 quantification studies, inguinal and popliteal lymph nodes were collected and single cell suspensions were prepared. Unfractionated lymph node cells were cultured with PMA, Ionomycin and Brefeldin A for 6 hours as above. Cells were stained with FITC anti-mouse CD4 or isotype controls, followed by fixation and permeabilization using a Cytofix-Cytoperm™ kit. After permeabilization, intracellular staining was performed using PE-conjugated anti-mouse IL17A and APC-conjugated anti-mouse IFN-γ and cells were analyzed by flow cytometry as above. To measure IL-17 production, splenocytes from mice immunized as above were stimulated in vitro with 5 μg of CII259-273 peptide. At different time points thereafter, supernatants were collected and assayed for IL-17 by ELISA as above.

CD4+CD25+Foxp3+ Treg = experiment: Treg differentiation in DC/CD4+ T cell co-culture; format: cell-based, mouse; conditions: 50 μg/ml peptide; for Treg differentiation (CD4+CD25+Foxp3+ abundance): DCs co-cultured with naïve CD4+CD25−CD62L+CD44− T cells, 5 days
Procedure: (A) DBA/1 bone marrow-derived CD11c+DCs were cultured overnight with 50 μg/ml SL ligand 65-79*0401 or ISL-negative control 65-79*0402, or medium. Syngeneic splenic CD4+ T cells were then added to the culture, and incubated with anti-CD3 and TGF-β for 5 days. On the left, flow cytometry dot plots showing percentages of CD25+Foxp3+ cells obtained from gated CD4+ T cells in each treatment. Each plot is representative of three experiments. On the right, bar graphs present results as mean percentage±SD of replicate samples. (B) Cultures were performed as in (A), with the exception that CD4+CD25− CD62L+CD44− naïve T cells, instead of CD4+ T cells were added to the CD11c+DCs. (C) DBA/1 bone marrow-derived CD11c+DCs were incubated overnight with 2 μg/ml tetramers (ISL-positive T-DRB1*0401, versus ISL-negative T-DRB1*0301, or T-DRB1*1501). Syngeneic CD4+CD25−CD62L+CD44− naïve T cells, anti-CD3 and TGF-β were then added to the culture and incubated for 5 days and analyzed as above.
DBA/1 bone marrow-derived CD11c+DCs were placed in 24-well plates (BD Biosciences, San Jose, Calif.) at a density of 2.5×10^5 cells per well and cultured overnight with or without 50 μg/ml of peptidic (65-79*0401 or 65-79*0402), or 2 μg/ml of tetrameric (T-DR1*0401, T-DR1*0301, or T-DR1*1501) ligands at 37° C. On the following day, 5.0×10^5 CD4+ T cells or CD4+CD25−CD62L+CD44− naïve T cells, isolated as described above, were added to each well in addition to anti-CD3 antibodies (5 μg/ml) and rhTGFβ (2.5 ng/ml).
After 5 days in culture, cells were harvested and stained for flow cytometric analysis using FITC anti-mouse CD4 (clone […]), PE anti-mouse CD25 (clone PC61) and isotype controls (Biolegend, San Diego, Calif.). […] After permeabilization, cells were stained using an APC-conjugated anti-mouse Foxp3 antibody (clone FLK-16S from e-Bioscience, San Diego, Calif.) and analyzed by FACScalibur flow cytometer using the CELLQuest™ software (Becton Dickinson, Franklin Lakes, N.J.).

CD11c+DCs = experiment: IL-23 and IL-6 production in LPS-stimulated bone marrow-derived CD11c+DCs (ELISA); format: cell-based, mouse; conditions: LPS-treated DCs (100 ng/ml LPS)
Procedure: DBA/1 bone marrow-derived CD11c+DCs were cultured with or without 100 ng/ml LPS in the presence or absence of ISL-positive or ISL-negative 15mer peptides (50 μg/ml). Supernatants were collected at different time points and assayed for IL-23 and IL-6 content by ELISA.
To determine the rate of NO production, cells were loaded with 20 μM of the fluorescent NO probe 4,5-diaminofluorescein diacetate (DAF-2DA) and the fluorescence level was recorded every 5 minutes over a period of 500 minutes using a Fusion αHT system (PerkinElmer Life Sciences) at an excitation wavelength of 488 nm and emission wavelength of 515 nm. To determine IDO enzymatic activity, the generation of its product, kynurenine was measured (Takikawa et al. 1988. J Biol Chem 263:2041-2048.; herein incorporated by reference in its entirety). Cytokine concentrations were measured in cell culture supernatants using a Luminex platform (Millipore Corporation, Danvers, Mass.). In some experiments, cytokines were determined using ELISA (Quantikine®, R&D Systems, Minneapolis, Minn.) following the manufacture's instruction.

Substance: H-KDLLEQKRAAVDTYC-NH2 [65-79*0401]
- total antigen non-stimulated Th17 cells in draining lymph nodes (Th17 cells [1]; 100 μg i.p. days 0, 7, 14, 21, day 42): significant increase
- percentage of Th17 cells after 6 days in culture (Th17 cells [1]; lymph node cells re-stimulated with bacterial antigen PPD): 13.1±0.5%
- percentage of Th17 cells after 6 days in culture (Th17 cells [1]; lymph node cells stimulated with CII): 8.4±0.5%
- percentage of Th17 cells after 6 days in culture (Th17 cells [1]; lymph node cells, without any antigen stimulation): 5.4±0.4%
- Th17 abundance in draining lymph nodes (Th17 cells [2]; 10 μg co-administered with CII in CFA, footpad, day 7): dramatically increased
- CII-stimulated IL-17 production by splenocytes (Th17 cells [2]; compared to mice co-immunized with 65-79*0402): significantly more robust
- frequency of Th1 (IFNγ-positive) cells (Th17 cells [2]; draining lymph nodes, day 7): no change
- Treg expansion (CD4+CD25+Foxp3+ abundance) (CD4+CD25+Foxp3+ Treg; DCs co-cultured with CD4+ T cells, TGF-β, anti-CD3, 5 days): significantly inhibited
- Treg differentiation (CD4+CD25+Foxp3+ abundance) (CD4+CD25+Foxp3+ Treg): significantly inhibited
- Treg differentiation (CD4+CD25+Foxp3+ abundance) (CD4+CD25+Foxp3+ Treg; listed as 65-79*040): statistically significant, yet modest
- IL-23 production (CD11c+DCs): augmented
